Experimental findings from ChEMBL document CHEMBL4385649, “Cyclic heptapeptides from the soil-derived fungus Clonostachys rosea” (Bioorg Med Chem, 2019) are described below.

What all share (format): functional, cell-based
Assay [1] relates to A2780. Nature of the assay: Cytotoxicity against human A2780 cells assessed as reduction in cell viability at 10 uM by MTT assay. For orientation: Tetrazolium assays rely on reduction of a dye to a coloured formazan, in cell work by metabolically active cells.
In assay [2] the test system is L5178Y. Nature of the assay: Cytotoxicity against mouse L5178Y cells assessed as reduction in cell viability at 10 uM by MTT assay.
Assay [3] deals with L5178Y. Nature of the assay: Cytotoxicity against mouse L5178Y cells assessed as reduction in cell viability by MTT assay.
Assay [4] relates to A2780. Nature of the assay: Cytotoxicity against human A2780 cells assessed as reduction in cell viability by MTT assay.

Activity calls are given as the source filed them. The rule behind the calls is not given here.

For the compound `CC(C)C[C@H]1NC(=O)CNC(=O)CCNC(=O)[C@@H](Cc2c[nH]c3ccccc23)NC(=O)[C@H](C(C)C)NC(=O)[C@H](C(C)C)NC(=O)[C@H](C(C)C)NC1=O`, the outcome in the assay on A2780 [1] and in the assay on L5178Y [2] was inactive.

For orientation: IC50 means the point on the concentration scale where inhibition reaches its midpoint. As to `CC[C@H](C)[C@H]1NC(=O)[C@@H](CC(C)C)NC(=O)CNC(=O)CCNC(=O)[C@@H](Cc2c[nH]c3ccccc23)NC(=O)[C@H](C(C)C)NC(=O)[C@H](C(C)C)NC1=O`, in the assay on L5178Y [3], the IC50 is 4100 nM.

Regarding `CC[C@H](C)[C@H]1NC(=O)[C@@H](CC(C)C)NC(=O)CNC(=O)CCNC(=O)[C@@H](Cc2c[nH]c3ccccc23)NC(=O)[C@H](C(C)C)NC(=O)[C@@H]([C@@H](C)CC)NC1=O`, the outcome with A2780 [1] and in the assay on L5178Y [2] was inactive.

As to `C/C=C/C=C\[C@@H](O)[C@H]1CCC(=O)O1`, the outcome in the assay on A2780 [1] and with L5178Y [2] was inactive.

For `CCC/C=C/CCC(=O)[C@]1(O)C(=O)N[C@@H](C)[C@@H]1O`, the result with A2780 [1] and in the assay with L5178Y [2] was inactive.

With `CS[C@@]1(Cc2c[nH]c3ccccc23)NC(=O)[C@@](SC)(C(C)O)NC1=O` (stereo not given in full), the outcome in the assay with A2780 [1] and in the assay on L5178Y [2] was inactive.

With `O=C1OC(O)C=C1O` (stereo not given), the outcome with A2780 [1] and in the assay with L5178Y [2] was inactive.

For `C[C@@H](O)[C@@]12SS[C@]3(C(=O)N1C)[C@@H](O)C1(C45c6ccccc6N[C@@H]4N4C(=O)[C@]6([C@@H](C)O)SS[C@]4(C(=O)N6C)[C@H]5O)c4ccccc4N[C@@H]1N3C2=O` (stereo not given in full), the values for the concentration for half-maximal inhibition (IC50) in the assay with L5178Y [3] and in the assay with A2780 [4] were 100 nM and 3.5 µM, respectively.
